Data published in patent publication US20100068204A1, “4-ARYLOXYQUINOLIN-2(1H)-ONES AS MTOR KINASE AND PI3 KINASE INHIBITORS, FOR USE AS ANTI-CANCER AGENTS” (Wyeth, priority 2008, published 2010).

Columns and labels:
[1] = tested on: MDA468 breast tumor cells; test: In vitro cell growth assay (MTS), MDA468; type: cell-based, human; conditions: Homo sapiens, 72 h, three days after drug treatment
Procedure: (§1) Cell lines used were human adenocarcinoma (LoVo), […], prostate (LNCap), breast (MDA468, MCF7), colon (HCT116), renal (HTB44 A498), and ovarian (OVCAR3) tumor cell lines. The tumor cells were plated in 96-well culture plates at approximately 3000 cells per well. One day following plating, various concentrations of inhibitors in DMSO were added to cells (final DMSO concentration in cell assays was 0.25%). Three days after drug treatment, viable cell densities were determined by cell mediated metabolic conversion of the dye MTS, a well-established indicator of cell proliferation in vitro. Cell growth assays were performed using kits purchased from Promega Corporation (Madison, Wis.), following the protocol provided by the vendor. Measuring absorbance at 490 nm generated MTS assay results. Compound effect on cell proliferation was assessed relative to untreated control cell growth.

PI3Kα = PI3Kα (Homo sapiens, UniProt P42336); test: PI3Kα fluorescence polarization assay; type: biochemical; conditions: 20 μM PIP2, 25 μM ATP
PI3Kα, sequence (P42336 whole entry, species assumed): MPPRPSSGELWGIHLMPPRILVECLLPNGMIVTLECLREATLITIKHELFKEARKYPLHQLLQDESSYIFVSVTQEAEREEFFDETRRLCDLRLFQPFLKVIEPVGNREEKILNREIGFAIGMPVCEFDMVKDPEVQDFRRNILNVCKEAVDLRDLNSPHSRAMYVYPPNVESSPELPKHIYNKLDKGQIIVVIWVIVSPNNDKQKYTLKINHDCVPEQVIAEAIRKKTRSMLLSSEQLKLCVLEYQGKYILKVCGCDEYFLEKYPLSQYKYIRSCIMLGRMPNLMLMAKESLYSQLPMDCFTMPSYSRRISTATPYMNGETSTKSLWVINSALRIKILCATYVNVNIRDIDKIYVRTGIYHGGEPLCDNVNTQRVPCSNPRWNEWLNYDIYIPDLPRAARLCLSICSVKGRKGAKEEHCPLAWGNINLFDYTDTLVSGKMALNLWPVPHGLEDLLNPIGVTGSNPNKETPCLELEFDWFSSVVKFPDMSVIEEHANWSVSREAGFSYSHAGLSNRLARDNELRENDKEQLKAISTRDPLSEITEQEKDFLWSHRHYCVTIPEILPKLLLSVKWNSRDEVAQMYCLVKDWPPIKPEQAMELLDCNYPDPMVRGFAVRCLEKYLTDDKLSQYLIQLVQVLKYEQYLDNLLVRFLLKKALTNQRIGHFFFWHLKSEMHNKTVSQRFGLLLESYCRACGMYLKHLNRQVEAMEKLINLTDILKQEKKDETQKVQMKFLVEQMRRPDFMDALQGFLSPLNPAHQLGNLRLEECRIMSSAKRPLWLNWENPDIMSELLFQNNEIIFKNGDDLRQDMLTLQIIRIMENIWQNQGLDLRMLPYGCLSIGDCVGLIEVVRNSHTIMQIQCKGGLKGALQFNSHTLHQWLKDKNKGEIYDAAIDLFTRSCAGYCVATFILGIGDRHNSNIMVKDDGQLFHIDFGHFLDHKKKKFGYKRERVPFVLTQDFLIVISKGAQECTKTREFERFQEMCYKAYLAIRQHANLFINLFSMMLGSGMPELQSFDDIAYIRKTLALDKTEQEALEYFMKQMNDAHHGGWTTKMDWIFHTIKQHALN
PI3Kα, sequence (P27986 whole entry partner, species assumed): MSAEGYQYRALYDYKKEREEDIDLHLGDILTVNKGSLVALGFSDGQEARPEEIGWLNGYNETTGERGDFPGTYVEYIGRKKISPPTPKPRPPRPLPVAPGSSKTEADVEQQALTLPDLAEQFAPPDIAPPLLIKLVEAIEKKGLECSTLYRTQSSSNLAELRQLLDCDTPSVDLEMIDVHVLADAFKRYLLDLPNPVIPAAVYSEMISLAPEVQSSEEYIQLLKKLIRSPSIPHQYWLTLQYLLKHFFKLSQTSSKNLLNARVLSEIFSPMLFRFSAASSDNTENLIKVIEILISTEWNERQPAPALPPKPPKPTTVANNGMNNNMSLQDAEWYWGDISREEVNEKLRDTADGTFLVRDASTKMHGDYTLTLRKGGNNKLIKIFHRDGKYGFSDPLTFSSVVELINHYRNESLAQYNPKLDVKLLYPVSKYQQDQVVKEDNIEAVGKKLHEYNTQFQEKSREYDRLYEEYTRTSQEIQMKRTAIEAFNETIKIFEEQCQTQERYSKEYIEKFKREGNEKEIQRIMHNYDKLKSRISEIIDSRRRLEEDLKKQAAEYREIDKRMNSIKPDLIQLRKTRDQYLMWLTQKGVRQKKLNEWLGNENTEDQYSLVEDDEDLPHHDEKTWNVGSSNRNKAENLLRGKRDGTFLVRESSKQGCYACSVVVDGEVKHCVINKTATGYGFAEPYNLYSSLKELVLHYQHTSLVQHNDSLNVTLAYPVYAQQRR
Procedure: The reaction buffer was 20 mM HEPES pH7.5, 2 mM MgCl2, 0.05% CHAPS, and 0.01% βME (added fresh). The substrate solution was 40 μM PIP2 (diC8, Echelon, Salt Lake City Utah cat #P-4508, 1 mM in water) and 50 μM ATP in the reaction buffer. Nunc 384-well black polypropylene fluorescent plates were used for PI3K assays. The assay is run by putting 9.5 μl of freshly diluted enzyme in the reaction buffer per well, adding 0.5 μl of diluted drug or DMSO, and mixing. Then 10 μl of the substrate solution is added to each well to start the reaction. A final concentration of 20 μM PIP2 and 25 μM ATP in the reaction was used. Reactions were allowed to proceed for 30-60 minutes at room temperature. After 30-60 minutes, 20 μl of a solution of 10 nM TAMRA detector (Red detector probe-Echelon) and 2.5 uM of GST-murine GRP (1.5 mg/ml in 17% glycerol) was added per well to stop the reaction. The resulting solution was mixed well and allowed to stand for 90-110 minutes before reading plate. Assay Plates were read on Perkin-Elmer Envision plate readers with appropriate filters for Tamra [BODIPY-TMRI(1,3,4,5)P4]. Data obtained were used to calculate enzymatic activity and enzyme inhibition by inhibitor compounds. It is important to keep Red probe solutions dark. This procedure is adapted from Echelon Biosciences Inc procedure for their PI3-Kinase fluorescence polarization activity Assay kit Product number K-1100.

[2] = tested on: LNCap prostate tumor cells; test: In vitro cell growth assay (MTS), LNCap; type: cell-based, human; conditions: Homo sapiens, LNCaP, 72 h, three days after drug treatment
Procedure: as §1

human TOR (FLAG-TOR) = human TOR (FLAG-TOR) (Homo sapiens, UniProt P42345); test: mTOR enzyme assay (DELFIA format, purified enzyme); type: biochemical; conditions: 800 ng/ml FLAG-TOR, 100 μM ATP, 1.25 μM His6-S6K; read-out: mTOR Kinase IC50

Row | Structure (SMILES) | IC50 [1] [µM] | IC50 (PI3Kα) [µM] | IC50 [2] [µM] | IC50 (human TOR (FLAG-TOR)) [µM]
1 | CC(C)(C)CNc1ccc(CNc2cccc(Oc3cc(=O)[nH]c4ccccc34)c2)cn1 | 12 | 2.09 | 7 | 0.35
2 | CC(=O)Nc1ccc(-c2cccc(Oc3cc(=O)[nH]c4ccccc34)c2)cc1 | 11 | 3.67 | 15 | 0.22
3 | COc1cccc(Oc2cc(=O)[nH]c3ccccc23)c1 | 60 | > 10 | 9.3 | 0.3
4 | Cn1cc(CNc2cccc(Oc3cc(=O)[nH]c4ccccc34)c2)cn1 | 8.8 | 4.79 | 4 | 0.17
5 | O=c1cc(Oc2cccc(-c3cccc(CN4CCOCC4)c3)c2)c2ccccc2[nH]1 | 30 | 6.83 | 9.5 | 0.6
6 | O=c1cc(Oc2cccc(-c3ccc4[nH]ccc4c3)c2)c2ccccc2[nH]1 | 23 | > 10 | 12 | 0.47
7 | CN(C)CCc1ccc(Oc2cc(=O)[nH]c3ccccc23)cc1 | 23 | > 10 | 8 | 3.23
8 | O=c1cc(Oc2cccc(N3CCOCC3)c2)c2ccccc2[nH]1 | 60 | > 10 | 9 | 0.43
9 | O=c1cc(Oc2cccc(-c3cnn(CCN4CCOCC4)c3)c2)c2ccccc2[nH]1 | 10 | > 10 | 2.2 | 0.14
10 | CN1CCN(c2ccc(Oc3cc(=O)[nH]c4ccccc34)cc2)CC1 | 40 | > 10 | 17 | 7
11 | O=c1cc(Oc2ccc(-c3ccsc3)cc2)c2ccccc2[nH]1 | > 60 | 2.51 | > 60 | > 20
12 | CN1CCN(c2ccc(-c3cccc(Oc4cc(=O)[nH]c5ccccc45)c3)cn2)CC1 | 9 | > 10 | 4 | 0.21
13 | O=c1cc(Oc2cccc(-c3cccs3)c2)c2ccccc2[nH]1 | 3.8 | 2.69 | > 60 | > 20
14 | O=c1cc(Oc2cccc(-c3ccsc3)c2)c2ccccc2[nH]1 | 60 | 0.63 | 30 | 0.63
15 | CN(C)CCCNC(=O)c1cccc(-c2cccc(Oc3cc(=O)[nH]c4ccccc34)c2)c1 | 10 | > 10 | 4.3 | 0.5
16 | COc1ccccc1Oc1cc(=O)[nH]c2ccccc12 | > 60 | 4.68 | > 60 | 9.1
17 | O=c1cc(Oc2ccc(-c3ccncc3)cc2)c2ccccc2[nH]1 | > 60 | 4.88 | 1.9 | 0.24
18 | Cn1cc(-c2ccc(Oc3cc(=O)[nH]c4ccccc34)cc2)cn1 | > 60 | 2.28 | 1.3 | 1.98
19 | O=c1cc(Oc2ccc(C(F)(F)F)cc2)c2ccccc2[nH]1 | > 60 | 2.31 | > 60 | > 20
20 | O=c1cc(Oc2cccc(-c3ccc(NC4CCN(Cc5ccncc5)CC4)cc3)c2)c2ccccc2[nH]1 | 13 | > 10 | 6.7 | 0.12
21 | CN(C)C/C=C/C(=O)Nc1cccc(-c2cccc(Oc3cc(=O)[nH]c4ccccc34)c2)c1 | 8 | 12 | 4 | 0.14
22 | O=c1cc(Oc2cccc(-c3ccoc3)c2)c2ccccc2[nH]1 | 0.3 | 4.32 | 6.2 | 0.35
23 | O=c1cc(Oc2ccc(C3=NCCCN3)cc2)c2ccccc2[nH]1 | 60 | > 10 | > 60 | 0.57
24 | COc1ncc(-c2cccc(Oc3cc(=O)[nH]c4ccccc34)c2)c(OC)n1 | 38 | > 10 | > 60 | 0.28
